# Assay results published in patent US20240360122A1, “POLYMORPHIC FORMS AND SALTS OF A GLP-1R AGONIST” (Terns (Suzhou) Biotechnology Co., Ltd., priority 2023, published 2024).
# Structures can show the parent of a compound that is named as a salt.
# Assays:
# Assay type in all cases: physicochemical
# [1] = Solid state stability at 25° C./60% RH and 40° C./75% RH for 1 week; details: for HPLC peak Area, RRT 1.00: main peak
# Description: Each sample was added into a glass vial, sealed by parafilm with several holes, and kept under tested conditions. After one week, samples were taken for XRPD and HPLC purity test.
# [2] = Kinetic solubility in water and bio-relevant media (SGF, FaSSIF, FeSSIF) at 37° C.; details: for S: Solubility / FC: Form change: 37° C.; for S: Solubility: calculated by freeform; for FC: Form change: residual solids by XRPD
# Description: Add 4 mL of medium (H2O, SGF, FaSSIF and FeSSIF). • Rolled at 37° C. (˜25 rpm). Sampling at 1, 2, 4 and 24 hrs. • At each time-point, sampled 0.8 mL of solution or suspension into a centrifuge tube prior to centrifugation (12000 rpm, 37° C., 5 min) and filtration through 0.45 μm PTFE membrane. • Tested pH and concentration for the filtrate. Analyze residual solids by XRPD.
# 0.1 g of NaCl and 0.05 g of Triton X-100 were weighed into a 50-mL volumetric flask. Purified water was added to dissolve the solid. 67.5 μL HCl (38%, 12M) was added after the solid was dissolved completely. pH was then adjusted to 1.8 using HCl (1 M) or NaOH (1 M). Purified water was added to the volume.
# 0.17 g of anhydrous NaH2PO4, 0.021 g of NaOH and 0.31 g of NaCl were weighed into a 50-mL volumetric flask. ˜48 mL purified water was added to dissolve the solid. pH was adjusted to 6.5 using 1M HCl or 1M NaOH. Purified water was then added to the volume. 0.11 g of SIF powder was added into the volumetric flask.
# 0.41 mL of acetic acid, 0.20 g of NaOH and 0.59 g of NaCl were weighed into a 50-mL volumetric flask. ˜48 mL purified water was added to dissolve the solid. pH was adjusted to 5.0 using 1M HCl or 1M NaOH. Purified water was then added to the volume. 0.56 g of SIF powder was added into the volumetric flask.
# [3] = Hygroscopicity by DVS at 25° C.
# Description: DVS was measured via a SMS (Surface Measurement Systems) DVS Intrinsic. The relative humidity at 25° C. were calibrated against deliquescence point of LiCl, Mg(NO3)2 and KCl.
structure (smiles),measurement,setting,value
N#Cc1ccc(COc2cccc(C3CCN(Cc4nc5ccc(C(=O)O)cc5n4Cc4cncs4)CC3)n2)c(F)c1 [Potassium salt Type A],"HPLC peak Area, RRT 0.70","[1]; 25° C./60% RH, 1 week",0.06%
same,"HPLC peak Area, RRT 0.73","[1]; 25° C./60% RH, 1 week",0.15%
same,"HPLC peak Area, RRT 0.83","[1]; 25° C./60% RH, 1 week",1.80%
same,"HPLC peak Area, RRT 0.90","[1]; 25° C./60% RH, 1 week",0.09%
same,"HPLC peak Area, RRT 0.99","[1]; 25° C./60% RH, 1 week",0.06%
same,"HPLC peak Area, RRT 1.05","[1]; 25° C./60% RH, 1 week",0.27%
same,"HPLC peak Area, RRT 1.10","[1]; 25° C./60% RH, 1 week",0.67%
same,"HPLC peak Area, RRT 1.11","[1]; 25° C./60% RH, 1 week",0.05%
same,"HPLC peak Area, RRT 1.12","[1]; 25° C./60% RH, 1 week",0.06%
same,"HPLC peak Area, RRT 1.15","[1]; 25° C./60% RH, 1 week",0.21%
same,"HPLC peak Area, RRT 1.34","[1]; 25° C./60% RH, 1 week",0.10%
same,"HPLC peak Area, RRT 1.00","[1]; 25° C./60% RH, 1 week",96.47%
same,Form change,[1]; 25° C./60% RH/Open/1 week,No
same,Purity,[1]; 25° C./60% RH/Open/1 week,96.47 Area %
same,solid-state stability: form change and purity decrease,"[1]; 25° C./60% RH/open and 40° C./75% RH/open, 1 week",no form change or significant purity decrease
same,"HPLC peak Area, RRT 0.70","[1]; 40° C./75% RH, 1 week",0.05%
same,"HPLC peak Area, RRT 0.73","[1]; 40° C./75% RH, 1 week",0.14%
same,"HPLC peak Area, RRT 0.83","[1]; 40° C./75% RH, 1 week",1.78%
same,"HPLC peak Area, RRT 0.90","[1]; 40° C./75% RH, 1 week",0.09%
same,"HPLC peak Area, RRT 0.99","[1]; 40° C./75% RH, 1 week",<0.05%
same,"HPLC peak Area, RRT 1.05","[1]; 40° C./75% RH, 1 week",0.28%
same,"HPLC peak Area, RRT 1.10","[1]; 40° C./75% RH, 1 week",0.66%
same,"HPLC peak Area, RRT 1.11","[1]; 40° C./75% RH, 1 week",0.06%
same,"HPLC peak Area, RRT 1.12","[1]; 40° C./75% RH, 1 week",0.06%
same,"HPLC peak Area, RRT 1.15","[1]; 40° C./75% RH, 1 week",0.22%
same,"HPLC peak Area, RRT 1.34","[1]; 40° C./75% RH, 1 week",0.07%
same,"HPLC peak Area, RRT 1.00","[1]; 40° C./75% RH, 1 week",96.58%
same,Form change,[1]; 40° C./75% RH/Open/1 week,No
same,Purity,[1]; 40° C./75% RH/Open/1 week,96.58 Area %
same,"HPLC peak Area, RRT 0.70",[1]; Initial,0.05%
same,"HPLC peak Area, RRT 0.73",[1]; Initial,0.16%
same,"HPLC peak Area, RRT 0.83",[1]; Initial,1.84%
same,"HPLC peak Area, RRT 0.90",[1]; Initial,0.09%
same,"HPLC peak Area, RRT 0.99",[1]; Initial,0.05%
same,"HPLC peak Area, RRT 1.05",[1]; Initial,0.27%
same,"HPLC peak Area, RRT 1.10",[1]; Initial,0.70%
same,"HPLC peak Area, RRT 1.11",[1]; Initial,0.05%
same,"HPLC peak Area, RRT 1.12",[1]; Initial,0.06%
same,"HPLC peak Area, RRT 1.15",[1]; Initial,0.22%
same,"HPLC peak Area, RRT 1.34",[1]; Initial,0.10%
same,Purity,[1]; Initial,96.41 Area %
same,"HPLC peak Area, RRT 1.00",[1]; Initial,96.41%
same,S: Solubility,"[2]; FaSSIF, 1 hr",24 µg/mL
same,FC: Form change,"[2]; FaSSIF, 1 hr",No
same,S: Solubility,"[2]; FaSSIF, 2 hrs",21 µg/mL
same,FC: Form change,"[2]; FaSSIF, 2 hrs",No
same,S: Solubility,"[2]; FaSSIF, 4 hrs",22 µg/mL
same,FC: Form change,"[2]; FaSSIF, 4 hrs",No
same,S: Solubility,"[2]; FaSSIF, 24 hrs",29 µg/mL
same,FC: Form change,"[2]; FaSSIF, 24 hrs",Yes
same,S: Solubility,"[2]; FeSSIF, 1 hr",38 µg/mL
same,FC: Form change,"[2]; FeSSIF, 1 hr",No
same,S: Solubility,"[2]; FeSSIF, 2 hrs",35 µg/mL
same,FC: Form change,"[2]; FeSSIF, 2 hrs",No
same,S: Solubility,"[2]; FeSSIF, 4 hrs",34 µg/mL
same,FC: Form change,"[2]; FeSSIF, 4 hrs",No
same,S: Solubility,"[2]; FeSSIF, 24 hrs",21 µg/mL
same,FC: Form change,"[2]; FeSSIF, 24 hrs",Yes
same,S: Solubility,"[2]; H2O, 1 hr",920 µg/mL
same,FC: Form change,"[2]; H2O, 1 hr",No
same,S: Solubility,"[2]; H2O, 2 hrs",1700 µg/mL
same,FC: Form change,"[2]; H2O, 2 hrs",Yes
same,S: Solubility,"[2]; H2O, 4 hrs",3800 µg/mL
same,FC: Form change,"[2]; H2O, 4 hrs",Yes
same,S: Solubility,"[2]; H2O, 24 hrs",4900 µg/mL
same,FC: Form change,"[2]; H2O, 24 hrs",Yes
same,S: Solubility,"[2]; SGF, 1 hr",280 µg/mL
same,FC: Form change,"[2]; SGF, 1 hr",Yes
same,S: Solubility,"[2]; SGF, 2 hrs",69 µg/mL
same,FC: Form change,"[2]; SGF, 2 hrs",Yes
same,S: Solubility,"[2]; SGF, 4 hrs",39 µg/mL
same,FC: Form change,"[2]; SGF, 4 hrs",Yes
same,S: Solubility,"[2]; SGF, 24 hrs",50 µg/mL
same,FC: Form change,"[2]; SGF, 24 hrs",Yes
same,form change of residual solids (XRPD) after solubility test,"[2]; all the media (H2O, SGF, FaSSIF, FeSSIF), after 24 hrs",form change was observed
same,water uptake (DVS),[3]; 25° C./80% RH,0.62%
same,hygroscopicity,"[3]; DVS, 25° C.",slightly hygroscopic
same,Water uptake at 25° C./80% RH,"[3]; DVS, 25° C./80% RH",0.62 wt %
same,For change after DVS,[3]; XRPD after DVS test,No
same,form change after DVS test (XRPD),[3]; after DVS test,no form change
